From the supplement of paper PMC5908809

How the values were obtained:
[1] = tested on: KHYG-1 (IL-2 2.5 ng/mL); experiment: percent inhibition of viability; higher = more inhibition; details: 72 h
[2] = tested on: NK-92 (IL-2 2.5 ng/mL); experiment: as above; details: 72 h
[3] = tested on: normal primary NK cells, pool 2 (3 donors) (IL-2 2.5 ng/mL); experiment: as above; details: 72 h
[4] = tested on: DERL-7 (IL-2 2.5 ng/mL); experiment: as above; details: 72 h
[5] = tested on: normal primary NK cells, pool 3 (3 donors) (IL-2 2.5 ng/mL); experiment: as above; details: 72 h
[6] = tested on: NK-YS (IL-2 2.5 ng/mL); experiment: as above; details: 72 h
[7] = tested on: normal primary NK cells, pool 1 (3 donors) (IL-2 2.5 ng/mL); experiment: as above; details: 72 h
[8] = tested on: YT (IL-2 2.5 ng/mL); experiment: as above; details: 72 h
[9] = tested on: normal primary NK cells, pool 1 (3 donors), resting (IL-2 0 ng/mL); experiment: as above; details: 72 h
[10] = tested on: SNK-6 (IL-2 2.5 ng/mL); experiment: as above; details: 72 h
[11] = tested on: IMC-1 (IL-2 20 ng/mL); experiment: as above; details: 72 h
[12] = tested on: KAI3 (IL-2 2.5 ng/mL); experiment: as above; details: 72 h
[13] = tested on: NKL (IL-2 2.5 ng/mL); experiment: as above; details: 72 h
[14] = tested on: KHYG-1 (IL-2 2.5 ng/mL); experiment: drug sensitivity score (DSS) (DSS units); higher = more sensitive; extreme values may be limits of the assay; details: 72 h
[15] = tested on: NK-92 (IL-2 2.5 ng/mL); experiment: as above; details: 72 h
[16] = tested on: normal primary NK cells, pool 2 (3 donors) (IL-2 2.5 ng/mL); experiment: as above; details: 72 h
[17] = tested on: DERL-7 (IL-2 2.5 ng/mL); experiment: as above; details: 72 h
[18] = tested on: normal primary NK cells, pool 3 (3 donors) (IL-2 2.5 ng/mL); experiment: as above; details: 72 h
[19] = tested on: NK-YS (IL-2 2.5 ng/mL); experiment: as above; details: 72 h
[20] = tested on: normal primary NK cells, pool 1 (3 donors) (IL-2 2.5 ng/mL); experiment: as above; details: 72 h
[21] = tested on: YT (IL-2 2.5 ng/mL); experiment: as above; details: 72 h
[22] = tested on: normal primary NK cells, pool 1 (3 donors), resting (IL-2 0 ng/mL); experiment: as above; details: 72 h
[23] = tested on: SNK-6 (IL-2 2.5 ng/mL); experiment: as above; details: 72 h
[24] = tested on: IMC-1 (IL-2 20 ng/mL); experiment: as above; details: 72 h
[25] = tested on: KAI3 (IL-2 2.5 ng/mL); experiment: as above; details: 72 h
[26] = tested on: NKL (IL-2 2.5 ng/mL); experiment: as above; details: 72 h
[27] = tested on: normal NK cells expanded with K562-aAPC; experiment: as above; details: 72 h; IL-2 2.5 ng/mL
Experimental: (§1)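 Drug sensitivity and resistance testing on K562-aAPC-expanded normal NK cells: 5 concentrations (10-fold steps over a 10,000-fold range), 72 h at 37 °C, viability by CellTiter-Glo normalised to DMSO and benzethonium chloride controls; DSS from the fitted curve.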

[28] = tested on: normal NK cells expanded with K562-aAPC; experiment: percent inhibition of viability; higher = more inhibition; details: 72 h, IL-2 2.5 ng/mL
Experimental: as §1

O=C1NC(=O)/C(=C/c2ccc3nccc(-c4ccncc4)c3c2)S1 (max concentration tested 10000 nM)
percent inhibition of viability [%]
Details	1 nM	10 nM	100 nM	1000 nM	10000 nM
[1]	-3.03	-2.9	7.97	47.8	78.5
[2]	-4.72	-6.37	-0.26	24.6	63.5
[3]	-5.69	2.64	12.6	32.4	82.4
[4]	-4.4	4.35	9.03	60.2	88.2
[5]	-4.27	3.99	9.93	15.9	69.4
[6]	-5.37	-5.14	5.36	42.1	74.2
[7]	-6.7	13.9	10.7	28.1	58.9
[8]	-1.99	-2.62	7.22	58.7	82.4
[9]	7.14	23.7	24.7	33.3	68.1
[10]	7.06	2.93	5.43	30.6	67.5
[11]	-1.41	-1.05	0.35	-13.3	36.1
[12]	4.6	-4.46	10.8	33.3	66
[13]	-16.6	-12.9	3.48	52.1	76.4
[28]	-7.65	-6.22	-2.48	25.2	68.2

Details	drug sensitivity score
[14]	10.3
[15]	6.85
[16]	8.23
[17]	12.7
[18]	6.25
[19]	9.16
[20]	6.93
[21]	12.1
[22]	14.1
[23]	7.19
[24]	1.19
[25]	7.69
[26]	10.6
[27]	7.25

CN1CCN(c2cc(C(=O)Nc3ccc4c(c3)-c3c(c(C(N)=O)nn3-c3ccc(F)cc3)CC4)c(Cl)cn2)CC1 [PHA 408] (max concentration tested 10000 nM)
percent inhibition of viability [%]
Details	1 nM	10 nM	100 nM	1000 nM	10000 nM
[1]	-10.4	-8.63	-10.2	-0.31	104
[2]	-21	-16.1	-4.02	12.9	102
[3]	1.04	-1.49	11.9	13	101
[4]	-1.3	0.79	2.16	31.9	101
[5]	1.98	1.33	13.2	4.36	101
[6]	-12.4	-7.83	-4.48	7.91	103
[7]	-10.8	-7.07	1.01	6.7	101
[8]	-7.69	-3.99	-2.06	15.8	104
[9]	18.8	21.2	14.8	12.5	100
[10]	-17.6	-11.2	0.21	22.9	100
[11]	-8.52	-6.11	-8.53	2.74	99.6
[12]	-0.05	1.36	9.21	50.4	101
[13]	-18.1	-8.26	-5.06	22.7	103
[28]	-8.15	-10.8	-1.64	16.7	101

Details	drug sensitivity score
[14]	5.88
[15]	7.75
[16]	7.73
[17]	10.1
[18]	6.27
[19]	6.95
[20]	6.64
[21]	8.22
[22]	7.64
[23]	9.12
[24]	5.9
[25]	11.6
[26]	9.11
[27]	8.3
